The values below come from the supplement of paper PMC3974653.

Where a name gives a salt, the structure may show the parent alone.

This assay has as its system MTT (mouse pheochromocytoma). Description: IC50 of cell viability (ATP content). The settings on record: (24 or 48 h). Summed up: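 MTT mouse pheochromocytoma cells, cultured overnight at 37°C, 5% CO2 in DMEM with 5% FBS and 1% horse serum, were exposed in white 1536-well plates to library compounds in DMSO at final 0.5 nM to 46 µM (8 concentrations) for 24 or 48 hrs. CellTiter-Glo luminescence was normalised to positive-control (100%) and DMSO (0%) wells. A four-parameter logistic fit gave the IC50.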
For the molecule `Cc1cc(C)c(NC(=O)C[C@H](CC(=O)[O-])c2cccc3ccccc23)c(C(=O)N2CCC3(CCCC3)CC2)c1.[Na+]` [CR 2945], the “IC50 of cell viability” value was more than 46 µM. Take `CN1CC(=O)NC1=N` [CREATININE]: the “IC50 of cell viability” value was more than 46 µM. With `CC(=O)Oc1cccc(C)c1` [CRESYL ACETATE, M-], the “IC50 of cell viability” value is more than 46 µM. Take `CC(=O)Oc1ccc(C)cc1` [CRESYL ACETATE]: the “IC50 of cell viability” value is more than 46 µM. Consider `CC1CC(OC(=O)C(O)c2ccccc2)CC(C)(C)C1` (centres undefined) [CYCLANDELATE], for which the “IC50 of cell viability” value is more than 46 µM. In the case of `CC(=O)OC1=CC=C(C=C1)C(=C2/CCCCC2)\C3=CC=C(OC(C)=O)C=C3` [CYCLOFENIL], the “IC50 of cell viability” value is more than 46 µM. In the case of `N[S+]([O-])(=O)C1=C(Cl)C=C2NC(N[S+]([O-])(=O)C2=C1)C3CC\4CC3\C=C4` (centres undefined) [CYCLOTHIAZIDE], the “IC50 of cell viability” value is more than 46 µM.

`CN1CCC(CC1)=C2C3=C(C=CC=C3)\C=C/C4=C2C=CC=C4` [CYPROHEPTADINE]: the “IC50 of cell viability” value was more than 46 µM. In the case of `O=C(Nc1ccc(Cl)c(Cl)c1)C1CC1` [CYPROMID] it was more than 46 µM; in that of `CC(=O)[C@]1(O)CCC2C3/C=C(Cl)\C4=C\C(=O)C5CC5[C@@]4(C)C3CC[C@@]12C` (some centres undefined) [CYPROTERONE], more than 46 µM; in that of `Nc1nc(N)nc(NC2CC2)n1` [CYROMAZINUM], more than 46 µM. For `NC(CS)C(=O)O` (centres undefined) [CYSTEINE HYDROCHLORIDE], the “IC50 of cell viability” value was more than 46 µM. On to `NC(CSSCC(N)C(=O)O)C(=O)O` (centres undefined) [CYSTINE], for which the “IC50 of cell viability” value is more than 46 µM.

Take `CNC(=O)C(N)CSC(C)C1=C(C)C2=Cc3c(C(C)SCC(N)C(=O)NC)c(C)c4[n]3[Fe]35[n]6c(c(C)c(CCC(=O)O)c6=CC6=[N+]3C(=C4)C(C)=C6CCC(=O)O)=CC1=[N+]25` (centres undefined) [CYTOCHROME C]: the “IC50 of cell viability” value was more than 46 µM. Take `[O]=[Cd]` [Cadmium oxide]: the “IC50 of cell viability” value was more than 46 µM. With `CCOC(=O)NNc1ccc(N(CC)CC(C)O)nn1` (centres undefined) [Cadralazine] the figure was more than 46 µM; with `Cn1c(=O)c2c(ncn2C)n(C)c1=O` [Caffeine, citrated], more than 46 µM. Turning to `CC(=O)CCC(=O)[O-]` [Calcium Levulinate], the “IC50 of cell viability” value is more than 46 µM. Take `CC1(C)[C@@H]2CC[C@@]1(C)C(=O)C2` [Camphor]: the “IC50 of cell viability” value is more than 46 µM. On to `C=CC(=O)Nc1cc2c(Nc3ccc(F)c(Cl)c3)ncnc2cc1OCCCN1CCOCC1` [Canertinib], for which the “IC50 of cell viability” value was more than 46 µM. Consider `CCCCCc1cc(O)c2c(c1)OC(C)(C)c1ccc(C)cc1-2` [Cannabinol], for which the “IC50 of cell viability” value is more than 46 µM. For `[K+].C[C@@]12CCC(=O)\C=C1\C=C/[C@@H]3[C@@H]2CC[C@]4(C)[C@@H]3CC[C@]4(O)CCC([O-])=O` [Canrenoic acid potassium salt], the “IC50 of cell viability” value was more than 46 µM.

For the molecule `CCCCCOC(=O)Nc1nc(=O)n(C2O[C@H](C)[C@@H](O)[C@@H]2O)cc1F` (some centres undefined) [Capecitabine], the “IC50 of cell viability” value is more than 46 µM.

Take `CC1(C)S[C@@H]2[C@H](NC(=O)CC3=CC=CC=C3)C(=O)[N@@]2[C@@H]1C(O)=O` [Capicillin]: the “IC50 of cell viability” value is more than 46 µM.

In the case of `COc1cc(CNC(=O)CCCC/C=C/C(C)C)ccc1O` [Capsaicin], the “IC50 of cell viability” value was more than 46 µM. For `NC(=O)N1C2=C(C=CC=C2)\C=C/C3=C1C=CC=C3` [Carbamazepine], the “IC50 of cell viability” value was more than 46 µM. In the case of `CNC(=O)Oc1cccc2ccccc12` [Carbaryl], the “IC50 of cell viability” value is more than 46 µM. As for `CN1CC(O)C2=C/C(=N/NC(N)=O)C(=O)C=C21` (centres undefined) [Carbazochrome], the “IC50 of cell viability” value is more than 46 µM. Take `CC1(C)S[C@@H]2[C@H](NC(=O)C(C(=O)Oc3ccc4c(c3)CCC4)c3ccccc3)C(=O)N2[C@H]1C(=O)O` (some centres undefined) [Carbenicillin indanyl]: the “IC50 of cell viability” value was more than 46 µM. With `[Na+].[Na+].CC1(C)[C@H](CC[C@@]2(C)[C@H]1CC[C@@]3(C)[C@H]2C(=O)\C=C4\[C@H]5C[C@@](C)(CC[C@]5(C)CC[C@]34C)C([O-])=O)OC(=O)CCC([O-])=O` [Carbenoxolone disodium salt] the figure was more than 46 µM; with `CCOC(=O)N1\C=C/N(C)C1=S` [Carbimazole], more than 46 µM; with `CN(C)CCOC(c1ccc(Cl)cc1)c1ccccn1` (centres undefined) [Carbinoxamine maleate], more than 46 µM.

In the case of `CCOC(=O)NC(O)C(Cl)(Cl)Cl` (centres undefined) [Carbocloral], the “IC50 of cell viability” value is more than 46 µM. With `S=C=S` [Carbon disulfide] the figure was more than 46 µM. With `ClC(Cl)(Cl)Cl` [Carbon tetrachloride] the figure was more than 46 µM; with `CCCCNC(=O)N[S+](=O)([O-])c1ccc(N)cc1` [Carbutamide], more than 46 µM. As for `CCCC(C)(COC(N)=O)COC(=O)NC(C)C` (centres undefined) [Carisoprodol], the “IC50 of cell viability” value is more than 46 µM. For the molecule `O=NN(CCCl)C(=O)NCCCl` [Carmustine], the “IC50 of cell viability” value was more than 46 µM. With `CCN(CC)CCN1C(=O)\C(=N/C2=CC=CC=C12)CC3=CC=C(OC)C=C3` [Caroverine hydrochloride], the “IC50 of cell viability” value was more than 46 µM. For `O=c1[nH]c(=O)c2ccccc2o1` [Carsalam], the “IC50 of cell viability” value is more than 46 µM. In the case of `CC(C)(C)NC[C@H](O)COc1cccc2c1CCC(=O)N2` [Carteolol hydrochloride], the “IC50 of cell viability” value was more than 46 µM. Take `N[C@@H](C(=O)N[C@H]1[C@H]2SC\C(=C(/N2C1=O)C(O)=O)Cl)C3=CC=CC=C3` [Cefaclorum]: the “IC50 of cell viability” value was more than 46 µM. With `C\C1=C(\[N@]2[C@@H](SC1)[C@H](NC(=O)[C@@H](N)C3=CC=C(O)C=C3)C2=O)C(O)=O` [Cefadroxil] the figure was more than 46 µM. On to `CC1=C(C(=O)O)N2C(=O)[C@@H](NC(=O)[C@H](N)c3ccccc3)[C@H]2SC1` [Cefalexina], for which the “IC50 of cell viability” value was more than 46 µM. In the case of `NC(=O)C1=CC=[N+](C\C2=C(\[N@]3[C@@H](SC2)[C@H](NC(=O)CC4=CC=CS4)C3=O)C([O-])=O)C=C1` [Cefalonium], the “IC50 of cell viability” value is more than 46 µM. With `CC(=O)OCC1=C(C(=O)[O-])N2C(=O)C(NC(=O)Cc3ccccc3)C2SC1` (centres undefined) [Cefaloram] the figure was more than 46 µM; with `CC(=O)OCC1=C(C(=O)O)N2C(=O)[C@@H](NC(=O)Cc3cccs3)[C@H]2SC1` [Cefalotina], more than 46 µM. Turning to `Cn1nnnc1SCC1=C(C(=O)O)N2C(=O)[C@@H](NC(=O)[C@H](OC=O)c3ccccc3)[C@H]2SC1` [Cefamandole nafate], the “IC50 of cell viability” value is more than 46 µM. In the case of `[Na+].C[N]1N=NN=C1SC\C2=C(\[N@]3[C@@H](SC2)[C@H](NC(=O)[C@@H](O)C4=CC=CC=C4)C3=O)C([O-])=O` [Cefamandole sodium salt], the “IC50 of cell viability” value is more than 46 µM.

In the case of `Cc1nnc(SCC2=C(C(=O)O)N3C(=O)[C@@H](NC(=O)Cn4cnnn4)[C@H]3SC2)s1` [Cefazolin], the “IC50 of cell viability” value is more than 46 µM.

Consider `CC/C=C(/C(=O)N[C@@H]1C(=O)N2C(C(=O)OCOC(=O)C(C)(C)C)=C(COC(N)=O)CS[C@H]12)c1csc(N)n1` [Cefcapene pivoxil HCl], for which the “IC50 of cell viability” value was more than 46 µM. With `CC/C=C(\C(=O)N[C@H]1C(=O)N2C(C(=O)OCOC(=O)C(C)(C)C)=C(COC(N)=O)CS[C@H]12)c1csc(N)n1` [Cefcapene pivoxil hydrochloride] the figure was more than 46 µM; with `C=CC1=C(C(=O)O)N2C(=O)[C@@H](NC(=O)C(N=O)c3csc(N)n3)[C@H]2SC1` (some centres undefined) [Cefdinir], more than 46 µM; with `CO/N=C(\C(=O)N[C@@H]1C(=O)N2C(C(=O)[O-])=C(C[N+]3(C)CCCC3)CS[C@@H]12)c1csc(N)n1.Cl.O` [Cefepime hydrochloride], more than 46 µM.

`C=CC1=C(C(=O)O)N2C(=O)[C@@H](NC(=O)/C(=N\OCC(=O)O)c3csc(N)n3)[C@@H]2SC1` [Cefixime]: the “IC50 of cell viability” value was more than 46 µM. Turning to `[Na+].CO[C@@]1(NC(=O)CSCC#N)[C@@H]2SC\C(=C(/N2C1=O)C([O-])=O)CSC3=NN=N[N]3C` [Cefmetazole sodium salt], the “IC50 of cell viability” value was more than 46 µM. With `NCC1=C(CC(=O)N[C@H]2[C@@H]3SC\C(=C(/N3C2=O)C(O)=O)CSC4=NN=N[N]4CC(O)=O)C=CC=C1` [Ceforanide], the “IC50 of cell viability” value is more than 46 µM. In the case of `CO/N=C(\C(=O)N[C@@H]1C(=O)N2C(C(=O)[O-])=C(COC(C)=O)CS[C@@H]12)c1csc(N)n1.[Na+]` [Cefotaxime sodium salt] it was more than 46 µM; in that of `CO[C@@]1(NC(=O)[C@@H]2S\C(S2)=C(\C(N)=O)C(O)=O)[C@@H]3SC\C(=C(/N3C1=O)C(O)=O)CSC4=NN=N[N]4C` (some centres undefined) [Cefotetan], more than 46 µM; in that of `CN(C)CC[N]1N=NN=C1SC\C2=C(\[N@]3[C@@H](SC2)[C@H](NC(=O)CC4=CSC(=N4)N)C3=O)C(O)=O` [Cefotiam hydrochloride], more than 46 µM. Turning to `CO[C@@]1(NC(=O)Cc2cccs2)C(=O)N2C(C(=O)O)=C(COC(N)=O)CS[C@@H]21` [Cefoxitin sodium salt], the “IC50 of cell viability” value is more than 46 µM. With `COCC1=C(C(=O)OC(C)OC(=O)OC(C)C)N2C(=O)C(NC(=O)/C(=N\OC)c3csc(N)n3)C2SC1` (centres undefined) [Cefpodoxime proxetil], the “IC50 of cell viability” value is more than 46 µM.

`COC/1=C(/N2[C@H](SC1)[C@H](NC(=O)C(N)C/3\C=C/C/C=C3)C2=O)C(O)=O` (some centres undefined) [Cefradoxil]: the “IC50 of cell viability” value was more than 46 µM. With `[Na+].NC(=O)C1=CC=[N+](C\C2=C(\[N@]3[C@@H](SC2)[C@H](NC(=O)[C@H](C4=CC=CC=C4)[S]([O-])(=O)=O)C3=O)C([O-])=O)C=C1` [Cefsulodin sodium salt] the figure was more than 46 µM.
